Key:
[1] = tested on: Mus musculus; assay: Analgesic activity in sc dosed ddN mouse assessed as inhibition of light radiation-induced thermal pain by D'Amour-Smith method; assay type: functional
[2] = tested on: Mus musculus; assay: Analgesic activity in po dosed ddN mouse assessed as inhibition of phenylquinone-induced writhing; assay type: functional
[3] = species: Mus musculus; assay: Toxicity in mouse assessed as induction of physical dependence liability by jumping test; assay type: organism-based; conditions: in vivo
[4] = species: Rattus norvegicus; assay: Toxicity in morphine-dependent rat assessed as induction of physical dependence liability by substitution test; assay type: organism-based; conditions: in vivo
[5] = tested on: Mus musculus; assay: Toxicity in sc dosed ddN mouse light radiation-induced thermal pain model; assay type: organism-based; conditions: in vivo
[6] = Acute lethal toxicity in sc dosed rat measured after 1 week; assay type: organism-based; conditions: in vivo
[7] = tested on: Rattus norvegicus; assay: Analgesic activity in po dosed Wistar rat assessed as inhibition of tail pressing-induced mechanical pain by Haffner method; assay type: functional
[8] = tested on: Mus musculus; assay: Analgesic activity in po dosed ddN mouse assessed as inhibition of light radiation-induced thermal pain by D'Amour-Smith method; assay type: functional
[9] = Acute lethal toxicity in sc dosed mouse measured after 1 week; assay type: organism-based; conditions: in vivo
[10] = Acute lethal toxicity in po dosed rat measured after 1 week; assay type: organism-based; conditions: in vivo
[11] = Acute lethal toxicity in po dosed mouse measured after 1 week; assay type: organism-based; conditions: in vivo
[12] = Toxicity in po dosed Wistar rat tail pressing-induced mechanical pain model; assay type: organism-based; conditions: in vivo
[13] = tested on: Rhesus monkey; assay: Toxicity in morphine-dependent monkey assessed as induction of physical dependence liability by single dose suppression test; assay type: organism-based, Macaca mulatta; conditions: in vivo
[14] = Mus musculus, ddN, sc, read-out: ED50

COc1ccc(CN2CCN(C(c3ccccc3C)C(O)c3ccccc3)CC2)cc1.Cl (racemic; 54)
ED50 [1]: >160 mg/kg

COc1ccc(CN2CCN(C(c3cccc(C)c3)C(O)c3ccccc3)CC2)cc1.Cl (racemic)
ED50 [2]: 27.7 mg/kg | ED50 [1, 14]: 28 mg/kg

COc1ccc(CN2CCN(C(c3ccc(C)cc3)C(O)c3ccccc3)CC2)cc1.Cl (racemic)
ED50 [2]: 16.8 mg/kg | ED50 [1, 14]: 14.1 mg/kg

Cl.O=[N+]([O-])c1ccc(CN2CCN(C(c3ccccc3)C(O)c3ccccc3)CC2)cc1 (racemic)
ED50 [2]: 40 mg/kg | ED50 [1, 14]: > 160 mg/kg

COc1ccc(CN2CCN(C(c3ccccc3)C(O)c3ccc(OC)cc3)CC2)cc1.Cl.O (racemic)
ED50 [1, 14]: > 160 mg/kg

OC(c1ccccc1)C(c1ccccc1)N1CCN(c2ccccn2)CC1 (racemic)
ED50 [1, 14]: > 160 mg/kg

COc1ccc(CN2CCN([C@H](c3ccccc3Cl)[C@H](O)c3ccccc3)CC2)cc1.Cl
ED50 [1, 14]: 58.4 mg/kg

COc1ccc(CN2CCN([C@@H](c3ccccc3Cl)[C@@H](O)c3ccccc3)CC2)cc1.Cl
ED50 [1, 14]: > 160 mg/kg

Cc1ccc(CN2CCN(C(c3ccccc3)C(O)c3ccccc3)CC2)cc1.Cl.O (racemic)
ED50 [2]: 43.7 mg/kg | ED50 [1, 14]: > 160 mg/kg

COc1ccc(CN2CCN(C(c3ccccc3)C(O)c3ccccc3C)CC2)cc1.Cl (racemic)
ED50 [2]: 100 mg/kg | ED50 [1, 14]: 120 mg/kg

Cl.OC(c1ccccc1)C(c1ccccc1Cl)N1CCN(Cc2ccc3c(c2)OCO3)CC1 (racemic)
ED50 [1, 14]: > 160 mg/kg

COc1ccc(CN2CCN(C(c3ccc([N+](=O)[O-])cc3)C(O)c3ccccc3)CC2)cc1.Cl (stereo in doubt; 55)
ED50 [1]: >160 mg/kg

COc1ccc(CN2CCN(C(c3ccccc3)C(O)c3cccc(Cl)c3)CC2)cc1.Cl.O (racemic)
ED50 [1, 14]: > 160 mg/kg

COc1ccc(CN2CCN(C(c3ccccc3)C(O)c3ccccc3OC)CC2)cc1.Cl (racemic)
ED50 [1, 14]: > 160 mg/kg

COc1ccc(CN2CCN([C@@H](c3ccccc3)[C@@H](O)c3ccccc3)CC2)cc1
ED50 [1, 14]: 13.5 mg/kg

COc1ccc(CN2CCN(C(c3ccccc3C)C(O)c3ccccc3)CC2)cc1.Cl (racemic; 41)
ED50 [1]: 65.2 mg/kg | Activity [3]: Non-toxic | Activity [4]: Non-toxic

COc1ccc(CN2CCN(C(c3ccc(Cl)cc3)C(O)c3ccc(C)cc3)CC2)cc1.Cl (racemic)
ED50 [1, 14]: > 160 mg/kg

COc1ccc(CN2CCN(C(c3ccccc3OC)C(O)c3ccc(C)cc3)CC2)cc1.Cl (racemic)
ED50 [1, 14]: > 160 mg/kg

COc1ccc(CN2CCN(C(c3ccccc3)C(O)c3cccc(C)c3)CC2)cc1.Cl (racemic)
ED50 [2]: 18.5 mg/kg | ED50 [1, 14]: 26.4 mg/kg

Cl.OC(c1ccccc1)C(c1ccccc1Cl)N1CCN(Cc2ccc(OCc3ccccc3)cc2)CC1 (racemic)
ED50 [1, 14]: > 160 mg/kg

Cl.OC(c1ccccc1)C(c1ccccc1)N1CCN(C2CCCCC2)CC1 (racemic)
ED50 [5]: > 80 mg/kg

COc1ccc(CN2CCN(C(c3ccccc3)C(O)c3ccccc3)CC2)cc1 (racemic)
ED50 [2]: 31.1 mg/kg | ED50 [5]: 15.2 mg/kg | ED50 [1, 14]: > 160 mg/kg

CCC(=O)OC(c1ccccc1)C(c1ccccc1Cl)N1CCN(Cc2ccc(OC)cc2)CC1.Cl (racemic)
ED50 [2]: 90 mg/kg | ED50 [1, 14]: > 160 mg/kg

COc1cccc(CN2CCN(C(c3ccccc3Cl)C(O)c3ccccc3)CC2)c1.Cl (racemic)
ED50 [1, 14]: > 160 mg/kg

COc1ccc(CN2CCN(C(c3ccccc3)C(OC(C)=O)c3ccccc3)CC2)cc1.Cl (racemic)
ED50 [2]: 46.3 mg/kg | ED50 [1, 14]: 80 mg/kg

COc1ccc(CN2CCN(C(c3ccc(OC)cc3)C(O)c3ccccc3)CC2)cc1.Cl (racemic)
ED50 [2]: 24.1 mg/kg | ED50 [1, 14]: 37.4 mg/kg

COc1ccc(CN2CCN(C(c3ccccc3OC)C(O)c3ccccc3)CC2)cc1.Cl (racemic)
Activity [3]: Non-toxic | Activity [4]: Non-toxic

OC(c1ccccc1)C(c1ccccc1)N1CCN(c2ccccc2Cl)CC1 (racemic)
ED50 [1, 14]: > 160 mg/kg

COc1ccccc1CN1CCN(C(c2ccccc2Cl)C(O)c2ccccc2)CC1.Cl.O (racemic)
ED50 [1, 14]: > 160 mg/kg

COc1ccc2c3c1O[C@H]1[C@@H](O)C=C[C@H]4[C@@H](C2)N(C)CC[C@@]341.COc1ccc2c3c1O[C@H]1[C@@H](O)C=C[C@H]4[C@@H](C2)N(C)CC[C@@]341.O.O=P(O)(O)O.O=P(O)(O)O [CODEINE PHOSPHATE]
ED50 [2]: 8.21 mg/kg | LD50 at 168 h [6]: 365 mg/kg | ED50 [7]: 196 mg/kg | ED50 [8]: 98.4 mg/kg | LD50 at 168 h [9]: 271 mg/kg | LD50 at 168 h [10]: 1180 mg/kg | LD50 at 168 h [11]: 574 mg/kg | ED50 [1, 14]: 28.1 mg/kg

CCC(=O)OC(c1ccccc1)C(c1ccccc1)N1CCN(Cc2ccc(OC)cc2)CC1.Cl (racemic)
ED50 [2]: 44.3 mg/kg | ED50 [1, 14]: 73.1 mg/kg

COc1ccccc1CN1CCN(C(c2ccccc2)C(O)c2ccccc2)CC1.Cl.O (racemic)
ED50 [1, 14]: > 160 mg/kg

OC(c1ccccc1)C(c1ccccc1)N1CCN(CCc2ccccc2)CC1 (racemic)
ED50 [1, 14]: > 160 mg/kg

COc1ccc(CN2CCN([C@H](c3ccccc3)[C@H](O)c3ccccc3)CC2)cc1
ED50 [1, 14]: 40.1 mg/kg

COc1ccc(CN2CCN(C(c3ccccc3)C(O)c3ccc(C)cc3)CC2)cc1.Cl (racemic)
ED50 [2]: 85.9 mg/kg | ED50 [1, 14]: 31.7 mg/kg

COc1ccc(CN2CCN(C(c3cccc(OC)c3)C(O)c3ccccc3)CC2)cc1.Cl (racemic)
ED50 [1, 14]: > 160 mg/kg

COc1ccccc1N1CCN(C(c2ccccc2)C(O)c2ccccc2)CC1 (racemic)
ED50 [1, 14]: > 160 mg/kg

Cc1c(N(C)C)c(=O)n(-c2ccccc2)n1C [AMINOPYRINE]
ED50 [5]: > 640 mg/kg | LD50 at 168 h [6]: 511 mg/kg | LD50 at 168 h [9]: 385 mg/kg | LD50 at 168 h [10]: > 2000 mg/kg | LD50 at 168 h [11]: 523 mg/kg | LD50 [12]: > 2560 mg/kg

COc1ccc(CN2CCN(C(c3ccccc3Cl)C(O)c3ccccc3)CC2)cc1.Cl (racemic; 53)
ED50 [1]: >160 mg/kg

COc1ccc(CN2CCN(C(c3ccccc3)C(O)c3ccccc3Cl)CC2)cc1.Cl (racemic)
ED50 [1, 14]: > 160 mg/kg

COc1ccc(CN2CCN(C(c3ccc(Cl)cc3)C(O)c3ccccc3)CC2)cc1.Cl (racemic)
ED50 [2]: 16.4 mg/kg | ED50 [1, 14]: 39.7 mg/kg

COc1ccc(CN2CCN(C(c3ccccc3Cl)C(O)c3ccc(C)cc3)CC2)cc1.Cl (racemic)
ED50 [1, 14]: > 160 mg/kg

COc1ccc(CN2CCN(C(c3ccccc3)C(O)c3ccc(O)cc3)CC2)cc1.Cl (racemic)
ED50 [1, 14]: > 160 mg/kg

COc1ccc(CN2CCN(C(c3ccccc3Cl)C(O)c3ccccc3)CC2)cc1OC.Cl (racemic)
ED50 [1, 14]: > 160 mg/kg

CCOc1ccc(CN2CCN(C(c3ccccc3Cl)C(O)c3ccccc3)CC2)cc1.Cl (racemic)
ED50 [1, 14]: > 160 mg/kg

COc1ccc(CN2CCN(C(c3ccccc3)C(O)c3ccc(Cl)cc3)CC2)cc1.Cl (racemic)
ED50 [1, 14]: > 160 mg/kg

COc1ccc(CN2CCN(C(c3ccc([N+](=O)[O-])cc3)C(O)c3ccccc3)CC2)cc1.Cl (racemic)
ED50 [2]: 10.2 mg/kg | ED50 [1]: 8.11 mg/kg

Cl.OC(c1ccccc1)C(c1ccccc1)N1CCN(Cc2ccccc2)CC1 (racemic)
ED50 [2]: 20.6 mg/kg | ED50 [1, 14]: > 160 mg/kg

COc1ccc(CN2CCN(C(c3cccc(Cl)c3)C(O)c3ccccc3)CC2)cc1.Cl (racemic)
ED50 [2]: 27.2 mg/kg | ED50 [1, 14]: 48.1 mg/kg

COc1cccc(CN2CCN(C(c3ccccc3C)C(O)c3ccccc3)CC2)c1.Cl.O (racemic)
ED50 [1, 14]: > 160 mg/kg

COc1cc(CN2CCN(C(c3ccccc3Cl)C(O)c3ccccc3)CC2)cc(OC)c1OC.Cl.O (racemic)
ED50 [1, 14]: > 160 mg/kg

COc1ccc(CN2CCN(C(c3ccccc3Cl)C(O)c3ccccc3)CC2)cc1.Cl (racemic; 38)
ED50 [2]: 20.9 mg/kg | LD50 at 168 h [6]: 584 mg/kg | ED50 [7]: 228 mg/kg | ED50 [8]: 165 mg/kg | LD50 at 168 h [9]: 431 mg/kg | LD50 at 168 h [10]: > 3200 mg/kg | LD50 at 168 h [11]: 509 mg/kg | ED50 [1]: 79 mg/kg | Activity [3]: Non-toxic | Activity [4]: Non-toxic | Activity [13]: Non-toxic

Source: ChEMBL document CHEMBL3228021, “Studies on analgesic agents. 1.1a Preparation of 1,2-diphenyl-2-(4-substituted 1-piperazinyl)ethanol derivatives and structure-activity relationships” (J Med Chem, 1979)
